Source: patent US6387411B2, “Method for producing dispersible sterol and stanol compounds” (McNeil-PPC, Inc., priority 1998, dated 2002)

What was measured:
[1] = Turbidity of ground sterol/docusate sodium matrix shaken in water; type: physicochemical; conditions: shaken 30 seconds in 25 milliliter deionized water; for Turbidity, Series 2: measured after standing 20 minutes; for Turbidity, Series 1: measured after standing one minute
Method: Yet another method to determine whether the desired level of hydrocarbon has been added to the sterol/stanol, is to measure the turbidity of the solution after 100 milligrams of the ground sterol/stanol/hydrocarbon are added to water. The greater turbidity value, the more effectively the solid solution is able to be dispersed in water. […] Preferred turbidity levels are greater than about 1500, preferably greater than 2000 and most preferably greater than 3000 Nephelometric Turbidity Units (NTU). As used herein turbidity is understood to be the same as defined by the United States Pharmacopeia, 15th Edition, the light scattering effect of suspended particles and turbidity as the measure of the decrease in the incident beam intensity per unit length of a given suspension. The range of turbidty values is from 0 to 20,000 NTU. As a point of reference the turbidity of water is zero. The turbidity of the samples is measured at room temperature.
A docusate sodium/β-sitosterol matrix was prepared. The sample was shaken for 30 seconds in a vial containing 25 milliliter deionized water. In Series 1, turbidity measurements were taken after allowing the shaken sample to stand one minute. In Series 2, measurements were made after standing for 20 minutes.

[2] = Wetting and time to disperse of powdered matrix in unstirred water; type: physicochemical; conditions: similar conditions to Example 5 (200 mg in 250 ml water); up to three days vigorous stirring
Text: Another technique for measuring the crystallinity of the solid matrix is to measure the time in which a ground powdered sample of the solid takes to disperse in unstirred water. When an appropriate amount of the appropriate hydrocarbon material has been added, […], preferably in less than about 45 seconds and most preferably less than about 30 seconds. Agitation, including mild agitation such as a stirring bar, can be employed to enhance the dissolution of the solid solution in water.
Additional sitosterol/docusate sodium matrices were prepared and added to water.

| Structure (SMILES) | Turbidity, Series 2 [1] [NTU] | Turbidity, Series 1 [1] [NTU] | Wetting in water [2] |
| --- | --- | --- | --- |
| CCCCC(CC)COC(=O)CC(C(=O)OCC(CC)CCCC)S(=O)(=O)[O-].[Na+] (centres unmarked) [100% docusate sodium, docusate sodium] | 0.441 | 1.22 |  |
| CC[C@H](CC[C@@H](C)[C@H]1CC[C@H]2[C@@H]3CC=C4C[C@@H](O)CC[C@]4(C)[C@H]3CC[C@]12C)C(C)C [100% sterol, β-sitosterol] | 523 | 1301 | does not wet at all |
